ChEMBL document CHEMBL2086273, “Significant activity of ecdysteroids on the resistance to doxorubicin in mammalian cancer cells expressing the human ABCB1 transporter” (J Med Chem, 2012)

Experiments:
Format in all cases: cell-based
[1] = target: T1, ATP-dependent translocase ABCB1 (Homo sapiens, UniProt P08183); assay: Inhibition of human ABCB1 pump expressed in mouse L5178 cells assessed as fluorescence activity ratio at 20 uM for 10 mins by flow cytometry relative to control; conditions: l5178, 10 min
[2] = target: T1, ATP-dependent translocase ABCB1; assay: Inhibition of human ABCB1 expressed in mouse L5178 cells assessed as 50% inhibition of cell proliferation at compound-doxorubicin ratio of 20.4:1 after 48 hrs by MTT assay; conditions: l5178, 48 h
[3] = target: T1, ATP-dependent translocase ABCB1; assay: Inhibition of human ABCB1 expressed in mouse L5178 cells assessed as 95% inhibition of cell proliferation at compound-doxorubicin ratio of 20.4:1 after 48 hrs by MTT assay; conditions: l5178, 48 h
[4] = target: T1, ATP-dependent translocase ABCB1; assay: Inhibition of human ABCB1 expressed in mouse L5178 cells assessed as 75% inhibition of cell proliferation at compound-doxorubicin ratio of 20.4:1 after 48 hrs by MTT assay; conditions: l5178, 48 h
[5] = target: T1, ATP-dependent translocase ABCB1; assay: Inhibition of human ABCB1 expressed in mouse L5178 cells assessed as 95% inhibition of cell proliferation at compound-doxorubicin ratio of 40.8:1 after 48 hrs by MTT assay; conditions: l5178, 48 h
[6] = target: T1, ATP-dependent translocase ABCB1; assay: Inhibition of human ABCB1 expressed in mouse L5178 cells assessed as 75% inhibition of cell proliferation at compound-doxorubicin ratio of 40.8:1 after 48 hrs by MTT assay; conditions: l5178, 48 h
[7] = target: T1, ATP-dependent translocase ABCB1; assay: Inhibition of human ABCB1 expressed in mouse L5178 cells assessed as 50% inhibition of cell proliferation at compound-doxorubicin ratio of 40.8:1 after 48 hrs by MTT assay; conditions: l5178, 48 h

T1 sequence (P08183 whole entry): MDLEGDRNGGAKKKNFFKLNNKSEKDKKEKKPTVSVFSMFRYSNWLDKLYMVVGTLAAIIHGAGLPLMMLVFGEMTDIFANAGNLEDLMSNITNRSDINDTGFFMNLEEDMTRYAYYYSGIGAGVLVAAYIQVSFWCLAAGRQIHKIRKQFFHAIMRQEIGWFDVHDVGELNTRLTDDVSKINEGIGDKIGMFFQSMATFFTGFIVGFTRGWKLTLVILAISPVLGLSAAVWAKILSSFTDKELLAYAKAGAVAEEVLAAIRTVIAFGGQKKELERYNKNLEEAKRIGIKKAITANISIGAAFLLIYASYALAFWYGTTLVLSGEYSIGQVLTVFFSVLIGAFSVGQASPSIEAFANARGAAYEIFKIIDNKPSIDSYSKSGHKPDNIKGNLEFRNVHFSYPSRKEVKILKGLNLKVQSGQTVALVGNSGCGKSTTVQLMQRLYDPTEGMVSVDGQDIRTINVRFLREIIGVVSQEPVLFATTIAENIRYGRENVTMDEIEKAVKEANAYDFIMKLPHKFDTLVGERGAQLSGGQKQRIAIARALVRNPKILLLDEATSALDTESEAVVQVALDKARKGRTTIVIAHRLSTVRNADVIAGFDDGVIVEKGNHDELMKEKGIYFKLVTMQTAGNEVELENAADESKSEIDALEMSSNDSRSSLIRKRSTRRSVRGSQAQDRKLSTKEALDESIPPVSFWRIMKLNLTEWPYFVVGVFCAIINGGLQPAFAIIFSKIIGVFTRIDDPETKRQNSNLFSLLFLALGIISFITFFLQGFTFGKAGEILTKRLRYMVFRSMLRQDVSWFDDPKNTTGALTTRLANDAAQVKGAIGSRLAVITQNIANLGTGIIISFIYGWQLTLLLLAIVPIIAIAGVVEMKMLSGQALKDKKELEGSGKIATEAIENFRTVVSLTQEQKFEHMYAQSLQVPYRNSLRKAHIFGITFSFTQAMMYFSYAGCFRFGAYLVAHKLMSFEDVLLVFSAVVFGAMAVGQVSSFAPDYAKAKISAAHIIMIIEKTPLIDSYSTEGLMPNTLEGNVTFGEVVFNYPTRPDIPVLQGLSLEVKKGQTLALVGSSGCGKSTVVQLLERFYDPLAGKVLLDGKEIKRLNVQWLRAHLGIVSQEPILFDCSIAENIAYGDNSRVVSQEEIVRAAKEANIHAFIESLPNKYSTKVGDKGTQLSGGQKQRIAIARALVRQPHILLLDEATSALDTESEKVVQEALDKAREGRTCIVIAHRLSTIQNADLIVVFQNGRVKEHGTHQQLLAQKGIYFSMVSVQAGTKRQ

Structure (SMILES)	Ratio [1]	fractional inhibitory concentration index (FICI) [2]	fractional inhibitory concentration index (FICI) [3]	fractional inhibitory concentration index (FICI) [4]	fractional inhibitory concentration index (FICI) [5]	fractional inhibitory concentration index (FICI) [6]	fractional inhibitory concentration index (FICI) [7]
CC(C)CC[C@H]1OC(C)(C)O[C@]1(C)[C@H]1CC[C@@]2(O)C3=CC(=O)[C@@H]4C[C@@H](O)[C@@H](O)C[C@]4(C)[C@H]3[C@H](O)C[C@]12C	1.93	0.52	0.13	0.25	–	–	–
C[C@]12C[C@H](O)[C@H](O)C[C@H]1C(=O)C=C1[C@@H]2CC[C@]2(C)C(=O)CC[C@@]12O [RUBROSTERONE]	0.89	–	–	–	0.41	0.65	1.12
CCC1C[C@H]([C@](C)(O)[C@H]2CC[C@@]3(O)C4=CC(=O)[C@@H]5C[C@@H](O)[C@@H](O)C[C@]5(C)[C@H]4CC[C@]23C)OC(=O)C1C (some centres not stated) [CAPITASTERONE]	0.63	–	–	–	0.49	0.74	1.35
CC[C@H](C[C@H]1OC(C)(C)O[C@]1(C)[C@H]1CC[C@@]2(O)C3=CC(=O)[C@@H]4C[C@H]5OC(C)(C)O[C@H]5C[C@]4(C)[C@H]3CC[C@]12C)C(C)(C)O	26.53	0.19	0.068	0.11	–	–	–
C[C@@H]1C(=O)O[C@H](C)[C@H]1C[C@@H](O)[C@](C)(O)[C@H]1CC[C@@]2(O)C3=CC(=O)[C@@H]4C[C@@H](O)[C@@H](O)C[C@]4(C)[C@H]3CC[C@]12C [CYASTERONE]	0.75	–	–	–	0.47	0.85	1.54
CC(C)(O)CC[C@@H](O)[C@](C)(O)[C@H]1CC[C@@]2(O)C3=CC(=O)[C@@H]4C[C@@H](O)CC[C@]4(C)[C@H]3CC[C@]12C	0.55	–	–	–	2.26	1.48	1.05
CC(C)(O)CC[C@H]1OC(C)(C)O[C@]1(C)[C@H]1CC[C@@]2(O)C3=CC(=O)[C@@H]4C[C@H]5OC(C)(C)O[C@H]5[C@@H](O)[C@]4(C)[C@H]3CC[C@]12C	2.53	1.23	0.24	0.49	–	–	–
CC(=O)O[C@H]1C[C@@]2(C)[C@@H](C[C@H]1OC(C)=O)C(=O)C=C1[C@@H]2CC[C@]2(C)[C@@H]([C@@](C)(O)[C@@H](CCC(C)(C)OC(C)=O)OC(C)=O)CC[C@@]12O	8.55	0.73	0.13	0.29	–	–	–
CC(=O)O[C@H]1C[C@]2(C)[C@H]3CC[C@]4(C)[C@@H]([C@@](C)(O)[C@@H](CCC(C)(C)O)OC(C)=O)CC[C@@]4(O)C3=CC(=O)[C@]2(O)C[C@H]1O	0.84	–	–	–	0.6	0.86	1.22
CC(C)(O)CCC[C@](C)(O)[C@H]1CC[C@@]2(O)C3=CC(=O)[C@@H]4C[C@@H](O)[C@@H](O)[C@@H](O)[C@]4(C)[C@H]3CC[C@]12C	0.66	–	–	–	0.6	0.9	1.37
CC(C)(O)CC[C@H]1OC(C)(C)O[C@]1(C)[C@H]1CC[C@@]2(O)C3=CC(=O)[C@@H]4C[C@@H](O)[C@@H](O)[C@@H](O)[C@]4(C)[C@H]3CC[C@]12C	1.14	–	–	–	0.23	0.51	1.16
CC1(CC[C@H]2OC(C)(C)O[C@]2(C)[C@H]2CC[C@@]3(O)C4=CC(=O)[C@@H]5C[C@H]6OC(C)(C)O[C@H]6C[C@]5(C)[C@H]4CC[C@]23C)COC(C)(C)O1 (some centres not stated)	24.39	0.23	0.12	0.16	–	–	–
CC(C)(O)CC[C@H]1OC(C)(C)O[C@]1(C)[C@H]1CC[C@@]2(O)C3=CC(=O)[C@@H]4C[C@@H](O)CC[C@]4(C)[C@H]3CC[C@]12C	7.01	0.88	0.091	0.28	–	–	–
